Broadly, the Ki is the equilibrium dissociation constant of an inhibitor or competing ligand from its target. The EC50 is the concentration at which the effect is half-maximal.

Like-named read-outs stand apart in the source and are kept apart here.

Assay [1] deals with T1, recombinant human bradykinin B2 receptor (Homo sapiens, UniProt P30411).
T1 construct: expressed in transfected cells; host or cells: Chinese hamster ovary (CHO) cells, membrane homogenates
T1 sequence (P30411 1-391): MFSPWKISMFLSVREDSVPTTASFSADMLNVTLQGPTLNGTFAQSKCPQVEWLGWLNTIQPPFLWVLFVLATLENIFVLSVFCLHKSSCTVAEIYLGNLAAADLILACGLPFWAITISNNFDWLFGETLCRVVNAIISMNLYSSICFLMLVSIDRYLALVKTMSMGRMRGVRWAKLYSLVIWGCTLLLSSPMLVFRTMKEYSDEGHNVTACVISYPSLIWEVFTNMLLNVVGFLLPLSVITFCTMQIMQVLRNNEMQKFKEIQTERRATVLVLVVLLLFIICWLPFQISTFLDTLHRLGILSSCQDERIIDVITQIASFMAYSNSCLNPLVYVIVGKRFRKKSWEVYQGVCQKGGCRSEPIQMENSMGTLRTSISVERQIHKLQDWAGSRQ
Nature of the assay: [3H]-BK competition radioligand binding to human cloned B2 receptor (CHO cell membranes). On the procedure:
Chinese hamster ovary (CHO) cell membrane homogenates (2.5 μg protein) expressing the recombinant human bradykinin B2 receptor were incubated for 60 min at 23° C. with 0.2 nM [^3H]-bradykinin (95.5 Ci/mmole, PerkinElmer) in the absence or presence of the test compound in a buffer containing 50 mM Tris/HCl (pH 7.4), 0.2 g/L 1-10-phenanthroline and 0.1% BSA. All reagent and test compound additions to the assay plates were made using Biomek 3000 robotic workstations (Beckman Instruments, Fullerton, Calif.). Nonspecific binding was determined in the presence of 1 μM unlabeled bradykinin. Following the incubation, the assay was terminated by rapid filtration under vacuum through glass fiber filters (GF/C, PerkinElmer) presoaked with 0.3% polyethyleneimine and rinsed several times with an ice-cold 50 mM Tris-HCl buffer using a 96-sample cell harvester (Tomtec). The filters were air-dried and the radioactivity counted in a beta-scintillation counter (Topcount, PerkinElmer) using a scintillation cocktail (Microscint 20, PerkinElmer) (Sharif and Whiting, Neurochem. Int. 18: 89-96, 1991). Competitive binding inhibition curves were generated using a 7-point concentration—response of test compound in duplicate. Bradykinin peptide was also tested as an internal control in the assay. The data were analyzed using nonlinear, iterative curve-fitting to obtain the potency and intrinsic activities of the test agents as previously described (Sharif et al. J. Pharmacol. Exp. Ther. 286: 1094-1102, 1998; Sharif et al. Invest Ophthalmol. Vis. Sci. 39:2562-2571, 1998; Kelly et al. J. Pharmacol. Exp. Ther. 304: 238-245, 2003). Determined IC50 values were converted to Ki values using the standard Cheng-Prusoff equation.

Assay [2] has as its target T2, BK receptors in human ciliary muscle cells (h-CM) (Homo sapiens, UniProt P30411).
T2 construct: h-CM cells expressing BK receptors were seeded; endogenous in cells; host or cells: human ciliary muscle (h-CM) cells
T2 sequence (P30411 1-391): T1 sequence (P30411 1-391)
Nature of the assay: Functional assay measuring [Ca2+]i mobilization (FLIPR) in h-CM cells. The assay is classed as cell-based. The conditions noted are these: class symbols (in μM), read-out: CaM (EC50). On the procedure:
On the day of the experiment, media was removed, cells were rinsed and 50 μL of serum-free media added. One vial of FLIPR Calcium Assay Kit dye was reconstituted in 50 mL of a FLIPR buffer consisting of Hank's Balanced Salt Solution (HBSS), 20 mM HEPES, and 2.5 mM probenecid, pH 7.4. Cells were loaded with the calcium-sensitive dye by addition of an equal volume (50 μL) to each well of the 96-well plate and incubated with dye for 1 h at 23° C. […] After this time, the test compound plate and cell plate were placed in a Fluorescence Imaging Plate Reader (FLIPR-Tetra®) instrument (Molecular Devices/MDSPharma, Sunnyvale, Calif.). At the beginning of an experimental run, a signal test was performed to check the basal fluorescence signal from the dye-loaded cells and the uniformity of the signal across the plate. […] An aliquot (25 μL) of the test compound was added to the existing 100 μL dye-loaded cells at a dispensing speed of 50 μL/sec. Intracellular calcium mobilization was measured by monitoring real-time changes in cellular fluorescence upon test compound addition. Fluorescence data were collected in real-time at 1.0 sec intervals for the first 60 seconds and at 6.0 second intervals for an additional 120 seconds. Baseline fluorescence readings were normalized across the plate and background-corrected from negative control wells. […] EC50 values were determined by 4-parameter nonlinear curve fitting of the concentration-response curve. Calibration of the instrument was performed using manufacturer's standard procedures.

The mark [3] stands for this setting: 0.2 nM [3H]-bradykinin, CHO membranes, 60 min 23° C., mean ± SEM or single value, Ki from IC50 by Cheng-Prusoff, read-out: [3H]-BK Binding to Human Cloned B2 Receptor (Ki).
Where [4] appears, read: same assay as E1, given as class symbols (in μM), read-out: [3H]-BK Binding to Human Cloned B2 Receptor (Ki, nM), class symbols.

Take `COc1nc2c(OCc3c(Cl)ccc(N(C)C(=O)CNC(=O)CN4CCOCC4)c3Cl)cccc2n1Cc1ccccn1` [Compound 14, N-(2,4-dichloro-3-(((2-methoxy-1-(pyridin-2-ylmethyl)-1H-benzo[d]imidazol-4-yl)oxy)methyl)phenyl)-N-methyl-2-(2-morpholinoacetamido)acetamide]: the Ki in assay [1] (setting [3]) came out at 0.197 µM. For the same compound, the EC50 in assay [2] was in the range of 0.1 to 1 µM.
Regarding `CCc1nc2c(OCc3c(Cl)ccc(N(C)C(=O)CNC(=O)CCN4CCN(C(=O)NC)CC4)c3Cl)cccn2c1C(O)c1ccccn1` (centres unmarked) [Compound 59], the inhibitory constant (Ki) in assay [1] (setting [3]) was found to be 2.14 µM. Besides, the concentration for a half-maximal effect (EC50) in assay [2] fell in the range of 0.1 to 1 µM.
With `COc1nc2c(OCc3c(Cl)ccc(N(C)C(=O)CNC(=O)CCCN4CCN(C(C)=O)CC4)c3Cl)cccc2n1Cc1ccccn1` [Compound 55], the Ki in assay [1] (setting [3]) was determined as 0.984 µM. In assay [2], the 50% effective concentration (EC50) is 0.1 to 1 µM.
As for “3-(4-acetylpiperazin-1-yl)-N-(2-((2,4-dichloro-3-(((2-methoxy-1-(pyridin-2-ylmethyl)-1H-benzo[d]imidazol-4-yl)oxy)methyl)phenyl)(methyl)amino)-2-oxoethyl)propanamide [Compound 16]”, the Ki was 0.985 ± 0.473 µM in assay [1] (setting [3]) and 0.1 to 1 µM in assay [1] (setting [4]). Moreover, the concentration giving a half-maximal response (EC50) in assay [2] fell in the range of 0.1 to 1 µM.
With `CNC(=O)C1CCN(CC(=O)NCC(=O)N(C)c2ccc(C)c(COc3cccc4c3nc(OC)n4Cc3ccccn3)c2C)CC1` [Compound 52], the Ki in assay [1] (setting [3]) was determined as 0.0157 µM. In addition, the concentration for a half-maximal effect (EC50) in assay [2] lay within 0.1 to 1 µM.
`COc1nc2c(OCc3c(Cl)ccc(N(C)C(=O)CNC(=O)CCN4CCNCC4)c3Cl)cccc2n1Cc1ccccn1` [Compound 58]: the inhibition constant Ki in assay [1] (setting [3]) turned out to be 3.15 µM. Also, in assay [2], the EC50 was greater than 1 µM.
Consider `CC(=O)Nc1ccc(CC(=O)NCC(=O)N(C)c2ccc(Cl)c(COc3cccc4c(OCc5ccccn5)cc(C)nc34)c2Cl)cc1` [Compound 50], for which the inhibition constant (Ki) in assay [1] (setting [3]) was 0.015 µM. In addition, in assay [2], the EC50 fell in the range of 0.1 to 1 µM.
Turning to `NCCCC[C@H](N)C(=O)N[C@@H](CCCN=C(N)N)C(=O)N1CCC[C@H]1C(=O)N1CCC[C@H]1C(=O)NCC(=O)N[C@@H](Cc1ccccc1)C(=O)N[C@@H](CO)C(=O)N1CCC[C@H]1C(=O)N[C@@H](Cc1ccccc1)C(=O)N[C@@H](CCCN=C(N)N)C(=O)O` [Lys-BK, reference compound], the Ki in assay [1] (setting [4]) is less than 0.1 µM.
As for `COc1nc2c(OCc3c(Cl)ccc(N(C)C(=O)CNC(=O)CCN4CCN(C(=O)N(C)C)CC4)c3Cl)cccc2n1Cc1ccccn1` [Compound 17], the inhibition constant (Ki) in assay [1] (setting [3]) is 0.274 ± 0.069 µM. The EC50 in assay [2] was 0.1 to 1 µM.
The like results for `COc1nc2c(OCc3c(Cl)ccc(N(C)C(=O)CNC(=O)CCN4CCOCC4)c3Cl)cccc2n1Cc1ccccn1` [Compound 54] were, in that order, 0.455 µM and 0.1 to 1 µM.
Turning to `COC(=O)Nc1ccc(CCC(=O)NCC(=O)N(C)c2ccc(C)c(COc3cccc4c3nc(OC)n4Cc3ccccn3)c2C)cn1` [Compound 6], the inhibition constant (Ki) is 0.01 ± 0.002 µM in assay [1] (setting [3]) and less than 0.1 µM in assay [1] (setting [4]). Besides, in assay [2], the EC50 was less than 0.1 µM.
Regarding `CCc1nc2c(OCc3c(C)ccc(N(C)C(=O)CNC(=O)CCN4CCN(C(=O)NC)CC4)c3C)cccc2n1Cc1ccccn1` [Compound 60], the EC50 in assay [2] lay within 0.1 to 1 µM.
As to `COC(=O)N1CCN(CCC(=O)NCC(=O)N(C)c2ccc(Cl)c(COc3cccc4c3nc(OC)n4Cc3ccccn3)c2Cl)CC1` [Compound 18], the Ki in assay [1] (setting [3]) is 0.239 ± 0.15 µM. For the same compound, the 50% effective concentration (EC50) in assay [2] fell in the range of 0.1 to 1 µM.
With `N=C(N)NCCC[C@H](NC(=O)[C@H](Cc1ccccc1)NC(=O)[C@@H]1CCCN1C(=O)[C@H](CO)NC(=O)[C@H](Cc1ccccc1)NC(=O)CNC(=O)[C@@H]1C[C@@H](O)CN1C(=O)[C@@H]1CCCN1C(=O)[C@@H](N)CCCNC(=N)N)C(=O)O` [Hyp^3-BK, reference compound], the Ki in assay [1] is 0.0019 ± 0.0011 µM; in assay [1] ([3H]-BK Binding to Human Cloned B2 Receptor (Ki, nM), class symbols, same assay as E1, given as class symbols (in μM)) it was less than 0.1 µM.
In the case of `CSCC[C@H](N)C(=O)N[C@@H](CCCCN)C(=O)N[C@@H](CCCNC(=N)N)C(=O)N1CCC[C@H]1C(=O)N1CCC[C@H]1C(=O)NCC(=O)N[C@@H](Cc1ccccc1)C(=O)N[C@@H](CO)C(=O)N1CCC[C@H]1C(=O)N[C@@H](Cc1ccccc1)C(=O)N[C@@H](CCCNC(=N)N)C(=O)O` [Met-Lys-BK, reference compound], the inhibition constant Ki in assay [1] (setting [4]) is less than 0.1 µM.

Values taken from patent US8252793B2, “Bradykinin receptor agonists and uses thereof to treat ocular hypertension and glaucoma” (Alcon Research, Ltd., priority 2010, dated 2012).
